Structures can show the parent of a compound that is named as a salt.
target: T1, BACE1 (Homo sapiens, UniProt P56817); experiment: Cellular Aβ-lowering assay b): HEK293 APP Abeta 40 AlphaLISA Assay; format: cell-based; details: assay b): HEK293 APP cells, Aβ 40 in supernatant by AlphaLISA, 18-20 hrs incubation
T1 construct: endogenous in cells; host or cells: HEK293 stably transfected with human APP695 wt
Experimental: b) HEK293 APP: Abeta 40 AlphaLISA Assay
The cells were seeded in 96 well Microtiter plates in cell culture medium (Iscove's, plus 10% (v/v) fetal bovine serum, penicillin/streptomycin) to about 80% confluency and the compounds were added at a 3× concentration in ⅓ volume of culture medium (final DMSO concentration was kept at 1% v/v). After 18-20 hrs incubation at 37° C. and 5% CO2 in a humidified incubator, the culture supernatants were harvested for the determination of Aβ 40 concentrations using Perkin-Elmer Human Amyloid beta 1-40 (high specificity) Kit (Cat#AL275C).
In a Perkin-Elmer White Optiplate-384 (Cat#6007290), […] culture supernatants were combined with 2 μl of a 10X AlphaLISA Anti-hAβ Acceptor beads+Biotinylated Antibody Anti-Aβ 1-40 Mix (50 μg/mL/5 nM). After 1 hour room temperature incubation, 16 μl of a 1.25× preparation of Streptavidin (SA) Donor beads (25 μg/mL) were added and incubated for 30 minutes in the Dark. Light Emission at 615 nm was then recorded using EnVision-Alpha Reader. Levels of Aβ 40 in the culture supernatants were calculated as percentage of maximum signal (cells treated with 1% DMSO without inhibitor). The IC50 values were calculated using the Excel XLfit software.

T1 sequence (P56817 46-501): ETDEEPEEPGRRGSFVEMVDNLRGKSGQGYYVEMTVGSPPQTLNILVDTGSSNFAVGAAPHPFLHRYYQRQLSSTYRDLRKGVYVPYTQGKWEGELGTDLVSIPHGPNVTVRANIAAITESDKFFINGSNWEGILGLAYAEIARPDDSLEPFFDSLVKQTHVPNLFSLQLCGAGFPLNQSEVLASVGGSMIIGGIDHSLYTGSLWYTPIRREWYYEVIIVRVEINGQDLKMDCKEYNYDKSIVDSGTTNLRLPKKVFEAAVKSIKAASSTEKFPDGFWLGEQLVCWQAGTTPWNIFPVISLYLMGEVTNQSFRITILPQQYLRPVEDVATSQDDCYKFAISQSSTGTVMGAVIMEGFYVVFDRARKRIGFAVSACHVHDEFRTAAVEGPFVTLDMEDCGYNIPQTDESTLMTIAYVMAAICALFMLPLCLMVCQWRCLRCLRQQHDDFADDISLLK

Structure (SMILES) | IC50 [nM]
CC(C)(C)COS(=O)(=O)c1cccc(-c2ccc(F)c([C@@]3(C)N=C(N)COC(C)(C)C3(F)F)c2)c1 [Example 12, 3′-((R)-3-Amino-6,6-difluoro-5,7,7-trimethyl-2,5,6,7-tetrahydro-[1,4]oxazepin-5-yl)-4′-fluoro-biphenyl-3-sulfonic acid 2,2-dimethyl-propyl ester] | 5180
CC1(C)OCC(N)=N[C@](C)(c2cc(C#Cc3cccc(Cl)c3)c(F)cc2F)C1(F)F [Example 24, (R)-5-[5-(3-Chloro-phenylethynyl)-2,4-difluoro-phenyl]-6,6-difluoro-5,7,7-trimethyl-2,5,6,7-tetrahydro-[1,4]oxazepin-3-ylamine] | 1270
CC1(C)OCC(N)=N[C@](C)(c2cc(-c3cnn(-c4ccc(F)cc4)c3)c(F)cc2F)C1(F)F [Example 29, (R)-6,6-Difluoro-5-{2,4-difluoro-5-[1-(4-fluoro-phenyl)-1H-pyrazol-4-yl]-phenyl}-5,7,7-trimethyl-2,5,6,7-tetrahydro-[1,4]oxazepin-3-ylamine] | 940
CC1(C)OCC(N)=N[C@](C)(c2cc(-c3nc4cc(Cl)ccc4o3)c(F)cc2F)C1(F)F [Example 41, (R)-5-[5-(5-Chloro-benzooxazol-2-yl)-2,4-difluoro-phenyl]-6,6-difluoro-5,7,7-trimethyl-2,5,6,7-tetrahydro-[1,4]oxazepin-3-ylamine] | 550
CC(C)(C)NS(=O)(=O)c1cccc(-c2ccc(F)c([C@@]3(C)N=C(N)COC(C)(C)C3(F)F)c2)c1 [Example 15, 3′-((R)-3-Amino-6,6-difluoro-5,7,7-trimethyl-2,5,6,7-tetrahydro-[1,4]oxazepin-5-yl)-4′-fluoro-biphenyl-3-sulfonic acid tert-butylamide] | 4000
CC1(C)OCC(N)=N[C@](C)(c2cc(-c3nc4ccc(Cl)cc4s3)ccc2F)C1(F)F [Example 21, (R)-5-[5-(6-Chloro-benzothiazol-2-yl)-2-fluoro-phenyl]-6,6-difluoro-5,7,7-trimethyl-2,5,6,7-tetrahydro-[1,4]oxazepin-3-ylamine hydrochloride] | 7430
CC1(C)OCC(N)=N[C@](C)(c2cc(-c3nc4cc(F)c(F)cc4o3)c(F)cc2F)C1(F)F [Example 42, (R)-5-[5-(5,6-Difluoro-benzooxazol-2-yl)-2,4-difluoro-phenyl]-6,6-difluoro-5,7,7-trimethyl-2,5,6,7-tetrahydro-[1,4]oxazepin-3-ylamine] | 550
CC1(C)OCC(N)=N[C@](C)(c2cc(-c3ccc(C#N)cc3)ccc2F)C1(F)F [Example 20, 3′-((R)-3-Amino-6,6-difluoro-5,7,7-trimethyl-2,5,6,7-tetrahydro-[1,4]oxazepin-5-yl)-4′-fluoro-biphenyl-4-carbonitrile] | 710
CC(C)(C)NS(=O)(=O)c1cncc(-c2ccc(F)c([C@@]3(C)N=C(N)COC(C)(C)C3(F)F)c2)c1 [Example 16, 5-[3-((R)-3-Amino-6,6-difluoro-5,7,7-trimethyl-2,5,6,7-tetrahydro-[1,4]oxazepin-5-yl)-4-fluoro-phenyl]-pyridine-3-sulfonic acid tert-butylamide] | 1550
CC1(C)OCC(N)=N[C@](C)(c2cc(-c3cc(F)cc(Cl)c3)ccc2F)C1(F)F [Example 11, (R)-5-(5′-Chloro-4,3′-difluoro-biphenyl-3-yl)-6,6-difluoro-5,7,7-trimethyl-2,5,6,7-tetrahydro-[1,4]oxazepin-3-ylamine hydrochloride] | 510

The remaining compounds from weak to strong by IC50, led by results:

IC50 [nM] | Structure (SMILES)
500 | CC1(C)OCC(N)=N[C@](C)(c2cc(-c3ncc(Cl)cn3)c(F)cc2F)C1(F)F [Example 32, (R)-5-[5-(5-Chloro-pyrimidin-2-yl)-2,4-difluoro-phenyl]-6,6-difluoro-5,7,7-trimethyl-2,5,6,7-tetrahydro-[1,4]oxazepin-3-ylamine]
480 | COc1cnc(C#Cc2ccc(F)c([C@@]3(C)N=C(N)COC(C)(C)C3(F)F)c2)cn1 [Example 40, (R)-6,6-Difluoro-5-[2-fluoro-5-(5-methoxy-pyrazin-2-ylethynyl)-phenyl]-5,7,7-trimethyl-2,5,6,7-tetrahydro-[1,4]oxazepin-3-ylamine]
360 | CC1(C)OCC(N)=N[C@](C)(c2cc(C#Cc3ccccn3)ccc2F)C1(F)F [Example 39, (R)-6,6-Difluoro-5-(2-fluoro-5-pyridin-2-ylethynyl-phenyl)-5,7,7-trimethyl-2,5,6,7-tetrahydro-[1,4]oxazepin-3-ylamine]
220 | CC1(C)OCC(N)=N[C@](C)(c2cc(-c3cn(-c4ccc(C(F)(F)F)cn4)cn3)ccc2F)C1(F)F [Example 23, (R)-6,6-Difluoro-5-{2-fluoro-5-[1-(5-trifluoromethyl-pyridin-2-yl)-1H-imidazol-4-yl]-phenyl}-5,7,7-trimethyl-2,5,6,7-tetrahydro-[1,4]oxazepin-3-ylamine]
200 | CC1(C)OCC(N)=N[C@](C)(c2cc(-c3cn(-c4ccccn4)cn3)ccc2F)C1(F)F [Example 22, (R)-6,6-Difluoro-5-[2-fluoro-5-(1-pyridin-2-yl-1H-imidazol-4-yl)-phenyl]-5,7,7-trimethyl-2,5,6,7-tetrahydro-[1,4]oxazepin-3-ylamine]
180 | CC1(C)OCC(N)=N[C@](C)(c2cc(-c3nc4ccc(Cl)cc4o3)c(F)cc2F)C1(F)F [Example 31, (R)-5-[5-(6-Chloro-benzooxazol-2-yl)-2,4-difluoro-phenyl]-6,6-difluoro-5,7,7-trimethyl-2,5,6,7-tetrahydro-[1,4]oxazepin-3-ylamine]
152 | CC1(C)OCC(N)=N[C@](C)(c2cc(C#Cc3cncc(Cl)c3)ccc2F)C1(F)F [Example 38, (R)-5-[5-(5-Chloro-pyridin-3-ylethynyl)-2-fluoro-phenyl]-6,6-difluoro-5,7,7-trimethyl-2,5,6,7-tetrahydro-[1,4]oxazepin-3-ylamine]
145 | CC1(C)OCC(N)=N[C@](C)(c2cc(C#Cc3ccc(Cl)nn3)ccc2F)C1(F)F [Example 37, (R)-5-[5-(6-Chloro-pyridazin-3-ylethynyl)-2-fluoro-phenyl]-6,6-difluoro-5,7,7-trimethyl-2,5,6,7-tetrahydro-[1,4]oxazepin-3-ylamine]
115 | CC1(C)OCC(N)=N[C@](C)(c2cc(C#Cc3cc(C#N)ccn3)ccc2F)C1(F)F [Example 36, 2-[3-((R)-3-Amino-6,6-difluoro-5,7,7-trimethyl-2,5,6,7-tetrahydro-[1,4]oxazepin-5-yl)-4-fluoro-phenylethynyl]-isonicotinonitrile]
79 | CC1(C)OCC(N)=N[C@](C)(c2cc(C#Cc3ccnc(Cl)c3)ccc2F)C1(F)F [Example 35, (R)-5-[5-(2-Chloro-pyridin-4-ylethynyl)-2-fluoro-phenyl]-6,6-difluoro-5,7,7-trimethyl-2,5,6,7-tetrahydro-[1,4]oxazepin-3-ylamine]
75 | COc1ncc(-c2cc([C@@]3(C)N=C(N)COC(C)(C)C3(F)F)c(F)cc2F)cn1 [Example 30, (R)-5-[2,4-Difluoro-5-(2-methoxy-pyrimidin-5-yl)-phenyl]-6,6-difluoro-5,7,7-trimethyl-2,5,6,7-tetrahydro-[1,4]oxazepin-3-ylamine formate]
70 | CC1(C)OCC(N)=N[C@](C)(c2cc(-c3nc4ccc(C(F)(F)F)cc4o3)c(F)cc2F)C1(F)F [Example 43, (R)-5-[2,4-Difluoro-5-(6-trifluoromethyl-benzooxazol-2-yl)-phenyl]-6,6-difluoro-5,7,7-trimethyl-2,5,6,7-tetrahydro-[1,4]oxazepin-3-ylamine]
13 | CC1(C)OCC(N)=N[C@](C)(c2cc(C#Cc3ncc(Cl)cn3)ccc2F)C1(F)F [Example 34, (R)-5-[5-(5-Chloro-pyrimidin-2-ylethynyl)-2-fluoro-phenyl]-6,6-difluoro-5,7,7-trimethyl-2,5,6,7-tetrahydro-[1,4]oxazepin-3-ylamine]
3 | CC1(C)OCC(N)=N[C@](C)(c2cc(C#Cc3ccc(C#N)cn3)ccc2F)C1(F)F [Example 33, 6-[3-((R)-3-Amino-6,6-difluoro-5,7,7-trimethyl-2,5,6,7-tetrahydro-[1,4]oxazepin-5-yl)-4-fluoro-phenylethynyl]-nicotinonitrile]

Reference: patent publication US8877744B2, “1,4-Oxazepines as BACE1 and/or BACE2 inhibitors” (Hoffmann-La Roche Inc., priority 2011, dated 2014)
